Target: cAMP and cAMP-inhibited cGMP 3',5'-cyclic phosphodiesterase 10A (Homo sapiens, UniProt Q9Y233)
Test: PDE10A assay
Outline: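 Human PDE10A (2 ng/well) preincubated 15 min RT with compound in HEPES pH 7.5, 10 mM MgCl2, BSA, then reacted 15 min with 50 nM [3H]cGMP/cGMP substrate. Stopped with Y-Si SPA beads; bound radioactivity counted, IC50 from four-parameter logistic, pIC50 = −log10(IC50).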

SMILES	IC50
Cc1ccc(C)c(C(=O)Nc2ccc3cc(-c4ccccc4)nn3c2)n1 [Roche-Dataset for PDE10A, Compound 324]	53 nM
COC(=O)c1cc(Cl)c(C)n2nc(CCc3nc(N4CCCC4)nn3C)nc12 [Roche-Dataset for PDE10A, Compound 325]	432 nM
CN(C)c1nc(CCc2nccn2-c2ccccc2)nc2ccccc12 [Roche-Dataset for PDE10A, Compound 326]	587 nM
O=C(Nc1ccn2nc(-c3ccccc3)nc2c1)c1cc(Cl)nc(Cl)c1 [Roche-Dataset for PDE10A, Compound 327]	38 nM
Cc1cccc(CCc2nc(-c3ccccc3)cn2C)n1 [Roche-Dataset for PDE10A, Compound 328]	9270 nM
COc1ccccc1-c1cn2c(n1)C[C@H](NC(=O)c1c(C(=O)N3CCC3)cnn1C)CC2 [Roche-Dataset for PDE10A, Compound 330]	3.76 nM
CCc1cnc(C)cc1NC(=O)c1ccc2cc(-c3ccccc3)nn2c1 [Roche-Dataset for PDE10A, Compound 331]	84 nM
COc1cccc(-c2noc(CCN3C(=O)c4ccccc4C3=O)n2)c1 [Roche-Dataset for PDE10A, Compound 332]	10000 nM
Cc1ncc(Nc2cncnc2)c(C(=O)N[C@@H]2CCN(c3ccc(Cl)cn3)C2)n1 [Roche-Dataset for PDE10A, Compound 336]	242 nM
Cn1ncc(C(=O)N2CC(F)C2)c1C(=O)Nc1ccn2nc(-c3cccnc3)nc2c1 [Roche-Dataset for PDE10A, Compound 337]	1.16 nM
Cc1c(NC(=O)c2c(C(=O)N3CCC3)cnn2C)ccn2nc(-c3ccccc3)nc12 [Roche-Dataset for PDE10A, Compound 341]	16 nM
Cn1nc(N2CCCC2)nc1CCc1nc2c(C#N)cccn2n1 [Roche-Dataset for PDE10A, Compound 342]	467 nM
Cn1ncc(C(=O)N2CCOCC2)c1C(=O)N[C@@H]1CCn2cc(-c3ccc(F)cc3)nc2C1 [Roche-Dataset for PDE10A, Compound 346]	4340 nM
COC1CN(C(=O)c2cnn(C)c2C(=O)Nc2ccn3nc(N4CCOCC4)nc3c2)C1 [Roche-Dataset for PDE10A, Compound 348]	129 nM
COCCNC(=O)c1cc2[nH]c(-c3ccccc3)nc2cc1NC(=O)c1cc(C2CC2)cnc1OC [Roche-Dataset for PDE10A, Compound 349]	0.66 nM
Cc1cc(C)n2nc(/C=C/c3nc(N4CCCC4)nn3C3CC3)nc2n1 [Roche-Dataset for PDE10A, Compound 350]	21 nM
COc1ccccc1-c1cn2c(n1)C[C@H](NC(=O)c1c(C(=O)N(C)CCF)cnn1C)CC2 [Roche-Dataset for PDE10A, Compound 351]	173 nM
CCOC(=O)c1cnn(C)c1C(=O)Nc1ccn2nc(N3CCCC3)nc2c1 [Roche-Dataset for PDE10A, Compound 353]	21 nM
O=C(Nc1cc2nc(-c3ccccc3)cn2cc1Br)c1nc(C2CC2)ccc1Nc1cncnc1 [Roche-Dataset for PDE10A, Compound 354]	1.15 nM
COc1ccccc1-c1nc2cc(NC(=O)c3c(C(=O)O)cnn3C)ccn2n1 [Roche-Dataset for PDE10A, Compound 356]	9.74 nM
Cc1c(Cl)cc(Cl)c2nc(CCc3nc(N4CCCC4)nn3C)nn12 [Roche-Dataset for PDE10A, Compound 357]	0.55 nM
CNC(=O)c1cc2[nH]c(-c3ccccc3)nc2cc1NC(=O)c1c(Cl)c(C)nn1C [Roche-Dataset for PDE10A, Compound 358]	22 nM
CN(c1cncnc1)c1ccc(C2CC2)nc1C(=O)Nc1cc(-c2ccccn2)nn1C [Roche-Dataset for PDE10A, Compound 360]	5600 nM
Cn1cc(-c2ccccc2)nc1CCc1ncoc1-c1ccccc1 [Roche-Dataset for PDE10A, Compound 361]	1000 nM
COc1ccccc1-c1nc2n(c1Cl)CC[C@@H](NC(=O)c1c(C(=O)N3CCC3)cnn1C)C2 [Roche-Dataset for PDE10A, Compound 362]	188 nM
Cc1c(Br)cn2nc(/C=C/c3nc(N4CCCC4)n(C)n3)nc2c1C [Roche-Dataset for PDE10A, Compound 364]	73 nM
COc1cc(NC(=O)c2ccc3cc(-c4ccccc4)nn3c2)ccn1 [Roche-Dataset for PDE10A, Compound 365]	144 nM
Cn1cc(-c2ccccc2)nc1COc1nc2ccccc2c(=O)[nH]1 [Roche-Dataset for PDE10A, Compound 366]	90 nM
O=C(Nc1ccncc1C(F)(F)F)c1ccc2cc(-c3ccccc3)nn2c1 [Roche-Dataset for PDE10A, Compound 367]	1070 nM
CCn1nc(C)cc1C(=O)Nc1cc2nc(-c3ccccc3)[nH]c2cc1C(=O)NC [Roche-Dataset for PDE10A, Compound 369]	22 nM

The remaining lines, values ahead:

IC50	SMILES
35 nM	Cn1ncc(Br)c1C(=O)Nc1ccn2nc(-c3ccccc3)nc2c1 [Roche-Dataset for PDE10A, Compound 371]
4.99 nM	Cn1ncc(C(=O)N2CC(F)C2)c1C(=O)Nc1ccn2nc(N3CCOCC3)nc2c1 [Roche-Dataset for PDE10A, Compound 372]
0.47 nM	Cc1cc(Cl)c(C)n2nc(CCc3nc(N4CCCC4)n(C)n3)nc12 [Roche-Dataset for PDE10A, Compound 374]
8.73 nM	Cc1ccc2nc(/C=C/c3nc(N4CCCC4)nn3C)nn2c1C [Roche-Dataset for PDE10A, Compound 375]
8.4 nM	COC[C@H]1CCCN1c1n[nH]c(CCc2nc3c(C)ncc(C)n3n2)n1 [Roche-Dataset for PDE10A, Compound 376]
19 nM	Cn1ncc(C(=O)O)c1C(=O)Nc1ccc2cc(-c3ccccc3)nn2c1 [Roche-Dataset for PDE10A, Compound 377]
15 nM	COC(=O)c1cnn(C)c1C(=O)Nc1ccn2nc(-c3ccccc3)nc2c1 [Roche-Dataset for PDE10A, Compound 378]
4.41 nM	COc1ccccc1-c1cn2c(n1)C[C@H](NC(=O)c1c(C(=O)N3CC(F)C3)cnn1C)CC2 [Roche-Dataset for PDE10A, Compound 379]
25 nM	Cn1ncc(C(=O)O)c1C(=O)Nc1ccn2nc(-c3cccc(F)c3)nc2c1 [Roche-Dataset for PDE10A, Compound 380]
641 nM	O=C(O)c1cccnc1C(=O)Nc1ccn2nc(-c3ccccc3)nc2c1 [Roche-Dataset for PDE10A, Compound 381]
24 nM	Cc1nc(C)n2nc(/C=C/c3nc(N4CCCC4)nn3C)nc2c1Cl [Roche-Dataset for PDE10A, Compound 382]
250 nM	O=C(NCCc1ccc(C(F)(F)F)cc1)c1nc(C2CC2)cnc1Nc1cncnc1 [Roche-Dataset for PDE10A, Compound 383]
35 nM	Cc1cc(NC(=O)c2ccc3cc(-c4ccccc4)nn3c2)ccn1 [Roche-Dataset for PDE10A, Compound 384]
71 nM	O=C(Nc1ccn2nc(-c3ccccc3)nc2c1)c1cncc(Cl)c1 [Roche-Dataset for PDE10A, Compound 385]
1.47 nM	COCc1ccc(Nc2cncnc2)c(C(=O)Nc2ccnn2-c2ccccn2)n1 [Roche-Dataset for PDE10A, Compound 386]
5.53 nM	COC[C@H]1CCCN1c1nc(/C=C/c2nc3c(C)ncc(C)n3n2)n(C)n1 [Roche-Dataset for PDE10A, Compound 388]
